# Experimental data reported in US20210087290A1, “COMPOUNDS WHICH SPECIFICALLY BIND TO CD38 FOR USE IN THE TREATMENT OF NEURODEGENERATIVE AND INFLAMMATORY DISEASES” (ENCEFA, priority 2017, published 2021).
# B1: ABBV-8E12: intravenously injected monoclonal antibody cited for its brain/plasma ratio in humans (antibody, chains of the INN, looked up, V domains shown)
# VH: EVKVVESGGGLVQPGGSMKLSCVVSGFTFSNYWVNWVRQAPGKGLEWVAQIRLKSDNYATHYEESVKGRFTISRDDSKSSVYLQMNNLRAEDSGIYYCTNWEDYWGQGTTVTVSS
# VL: DIVLTQSPDSLAVSLGERATISCRASQSVSTSRYSYIHWYQQKPGQPPKLLIKYASNLESGVPSRFSGSGSGTDFTLNIHPLEPEDFATYYCHHSWEIPLTFGQGTKLEIK
# Assays:
# DA (TH^+) neurons [1] = test: MPP^+ intoxication model, DA cell survival in midbrain cultures; type: cell-based, Wistar rat
# Protocol: (§1) Animals were treated in accordance with the Guide for the Care and Use of Laboratory Animals (National Research Council, 1996), European Directive 86/609, and the guidelines of the local institutional animal care and use committee. Cultures were prepared from the ventral mesencephalon of gestational age 15.5 Wistar rat embryos (Janvier Breeding Center, Le Genest St Isle, France). Dissociated cells in suspension obtained by mechanical trituration of midbrain tissue pieces were seeded at a density of 1.2-1.5 10^5 cells/cm^2 onto tissue culture supports precoated with 1 mg/mL polyethylenimine diluted in borate buffer pH 8.3 as described (Michel et al., 1997. J Neurochem. 69(4):1499-507). […] They were fed daily by replacing 70% of the medium. Routinely, mesencephalic cultures were established on Nunc 24-well culture plates (Thermofischer Scientific, Rochester, N.Y.). Note that these cultures contain tyrosine hydroxylase (TH)^+ neurons that were exclusively dopaminergic (Traver et al., 2006. Mol Pharmacol. 70(1):30-40). TH^+ neurons represented approximately 1-2% of the total number of neuronal cells present in these cultures. The evaluation of the survival of DA neurons was performed by counting cells immunopositive for TH as described (Toulorge et al., 2011. Faseb J. 25(8):2563-73).
# Treatments with MPP^+ were performed in cultures where the spontaneous death process was prevented by long-term exposure to depolarizing concentrations of K^+ (30 mM), in the presence of the glutamate receptor antagonist MK801 (5 μM) to prevent unwanted excitotoxic insults as described previously (Douhou et al., 2001. J Neurochem. 78(1):163-74). Treatments with MPP^+ and potential neuroprotective molecules were carried out between 5 and 7 DIV. The number of microglial cells was evaluated in this same model since MPP^+ is known to induce microglial proliferation (Henze et al., 2005. J Neurochem. 95(4):1069-77).
# The cultures were fixed for 12 min using 4% formaldehyde in Dulbecco's phosphate-buffered saline (PBS), then washed twice with PBS before an incubation step at 4° C. for 24 h with the following antibodies. A monoclonal anti-TH antibody diluted 1/5000 (ImmunoStar, Inc., Hudson, Wis.) or a polyclonal anti-TH antibody diluted 1/1000 (US Biologicals, Salem, Mass.) was used to assess the survival of DA neurons. A monoclonal anti-MAP2 antibody diluted at 1/250 (clone AP20, Sigma-Aldrich) was used to assess the survival of cortical neurons. Microglial cells were characterized using a mouse anti-Ibal antibody (1/50; clone MRC OX-42; Pharmingen, BD Biosciences, Le Pont-de-Claix, France). All antibodies were diluted in PBS containing 0.2% Triton X-100, except the mouse anti-Ibal which was diluted in PBS only. Detection of the primary antibodies was performed with an Alexa Fluor-488 conjugate of an anti-mouse IgG antibody or with an Alexa Fluor-555 conjugate of an anti-rabbit antibody (1:500).
# cortical neurons [2] = test: Excitotoxicity model (glutamate) in cortical cultures; type: cell-based, Wistar rat; details: glutamate 75 μM between 12 and 14 DIV; NAD^+ 3 mM, antibodies 1 μg/mL
# Protocol: (§2) Animals were treated in accordance with the Guide for the Care and Use of Laboratory Animals (National Research Council, 1996), European Directive 86/609, and the guidelines of the local institutional animal care and use committee. Cultures were prepared from the cortex of gestational age 15.5 Wistar rat embryos (Janvier Breeding Center, Le Genest St Isle, France). Dissociated cells in suspension obtained by mechanical trituration of cortical tissue pieces were seeded onto tissue culture supports precoated with 1 mg/mL polyethylenimine diluted in borate buffer pH 8.3 according to the protocol previously described for mesencephalic cultures. […] They were fed daily by replacing 70% of the medium. Routinely, cortical cultures were established on Nunc 24-well culture plates (Thermofischer Scientific, Rochester, N.Y.).
# Glutamate (75 μM) was added to cortical cultures between 12 and 14 DIV in the presence or the absence of potential neuroprotective treatments. The cultures were then fixed in formaldehyde and immunostained using anti-MAP-2 antibody. The area occupied by MAP-2^+ neurons was assessed using ImageJ.
# (§3) The cultures were fixed for 12 min using 4% formaldehyde in Dulbecco's phosphate-buffered saline (PBS), then washed twice with PBS before an incubation step at 4° C. for 24 h with the following antibodies. […]
# [3] = system: midbrain DA (TH^+) neurons; test: Spontaneous and progressive dopaminergic (DA) cell death in midbrain cultures; type: cell-based, Wistar rat; details: NAD^+ 3 mM, antibodies 1 μg/mL
# Protocol: as §1
# We used a model system in which DA cell loss was spontaneous. […]
# dopaminergic neurons = test: Prevention of dopaminergic neurons cell death (summary statement); type: cell-based
# DA (TH^+) neurons [4] = test: GDNF withdrawal model in midbrain cultures; details: GDNF 20 ng/mL for 10 DIV, deprived 11-15 DIV; NAD^+ 3 mM, antibodies 1 μg/mL
# Source text: They were fed daily by replacing 70% of the medium. Routinely, mesencephalic cultures were established on Nunc 24-well culture plates (Thermofischer Scientific, Rochester, N.Y.). […] TH^+ neurons represented approximately 1-2% of the total number of neuronal cells present in these cultures.
# To evaluate the efficacy of our compounds in a more mature population of DA neurons, we also used a variation of the previous model system. More precisely, spontaneous DA cell death was prevented up to 10 DIV by a chronic treatment with GDNF (20 ng/mL) to favor the maturation of healthy DA neurons. Then, DA cell death was triggered by total withdrawal of GDNF for the next 5 days.
# The cultures were fixed for 12 min using 4% formaldehyde in Dulbecco's phosphate-buffered saline (PBS), then washed twice with PBS before an incubation step at 4° C. for 24 h with the following antibodies. A monoclonal anti-TH antibody diluted 1/5000 (ImmunoStar, Inc., Hudson, Wis.) or a polyclonal anti-TH antibody diluted 1/1000 (US Biologicals, Salem, Mass.) was used to assess the survival of DA neurons. […] All antibodies were diluted in PBS containing 0.2% Triton X-100, except the mouse anti-Ibal which was diluted in PBS only.
# cortical neurons [5] = test: Measurement of glucose uptake in cortical neurons (2-NBDG); type: cell-based, Wistar rat; details: acute treatment 30 min, 7 DIV; HB7 1 μg/mL, NAD^+ 3 mM, insulin 100 nM
# Protocol: In brief, cultures grown for 7 days were incubated with 2-NBDG (300 μM) for 30 min at 37° C. in the presence of test compounds in glucose-free N5 medium, washed twice to remove excess indicator, and then left to recover for 30 min before assessment. The fluorescent signal (excitation, 465 nm; emission, 540 nm) was acquired using an Arrayscan (ThermoFischer Scientific) and quantified using ImageJ. The average pixel intensity over the surface of each cell body was determined under the different experimental conditions. Background fluorescence was subtracted from raw data, and the results were expressed as a percentage of mean fluorescence intensity per cell under control conditions. 100 cells were analysed under each test condition.
# cortical neurons [6] = test: Oxidative stress model (H2O2) in cortical cultures; type: cell-based, Wistar rat; details: H2O2 75 μM between 12 and 14 DIV; NAD^+ 3 mM, antibodies 1 μg/mL
# Protocol: as §2
# H2O2 (75 μM) was added to cortical cultures between 12 and 14 DIV in the presence or the absence of potential neuroprotective molecules. The cultures were then fixed in formaldehyde and immunostained using anti-MAP-2 antibody. The area occupied by MAP-2′ neurons was assessed using ImageJ.
# as §3
# interleukin-10 (IL-10) = details: in vivo; cited from earlier work
# [7] = in humans; cited from earlier work
molecule,measurement,setting,value
"NC(=O)c1ccc[n+]([C@@H]2O[C@H](COP(=O)(O)OP(=O)([O-])OC[C@H]3O[C@@H](n4cnc5c(N)ncnc54)[C@H](O)[C@@H]3O)[C@@H](O)[C@@H]2F)c1 [ARA-F-NAD, ara-2′-deoxy-2′-fluoro-nicotinamide adenine dinucleotide]",MPP^+-induced DA cell loss,"DA (TH^+) neurons [1]; ARA-F-NAD 200 μM during the intoxication period, MPP^+ 3 μM",almost totally prevented
same,neuroprotective effect in the presence of Ned-19,"DA (TH^+) neurons [1]; ARA-F-NAD 200 μM, Ned-19 2 μM",abolished
"NC(=O)c1ccc[n+]([C@@H]2O[C@H](COP(=O)([O-])OP(=O)(O)OC[C@H]3O[C@@H](n4cnc5c(N)ncnc54)[C@H](O)[C@@H]3O)[C@@H](O)[C@H]2O)c1 [NAD^+, nicotinamide adenine dinucleotide]",protection from excitotoxicity,cortical neurons [2],protected from excitotoxicity
same,number of midbrain DA (TH^+) neurons,[3]; 10 DIV cultures chronically exposed,increased the number of midbrain DA (TH^+) neurons
same,neuroprotective effect in the presence of Ned-19,[3]; Ned-19 2 μM,slightly but significantly
same,concentration at which the neuroprotective effect was exerted,dopaminergic neurons,3 mM
same,TH^+ neurons saved from death after GDNF deprivation,DA (TH^+) neurons [4],saved from death
same,glucose uptake,cortical neurons [5],only modestly increased glucose uptake
same,protection from oxidative stress,cortical neurons [6],protected from oxidative stress
same,neuroprotective effect in the presence of Ex-527,"DA (TH^+) neurons [1]; Ex-527 100 μM, HB7 1 μg/mL, NAD^+ 3 mM, MPP^+ model",only antagonized
same,MPP^+-induced DA cell loss,"DA (TH^+) neurons [1]; MPP^+ 3 μM between 5 and 7 DIV, NAD^+ 3 mM, antibodies 1 μg/mL",either partially or almost totally prevented
same,neuroprotective effect in the presence of dantrolene,"DA (TH^+) neurons [1]; dantrolene 30 μM (FIG. 9), HB7 1 μg/mL, NAD^+ 3 mM, cADPR 200 μM, MPP^+ model",only antagonized
daratumumab: anti-CD38 antibody approved for the treatment of multiple myeloma,plasma levels of anti-inflammatory interleukin-10 (IL-10),interleukin-10 (IL-10),decrease
isatuximab: anti-CD38 antibody,plasma levels of anti-inflammatory interleukin-10 (IL-10),interleukin-10 (IL-10),decrease
B1,Brain/plasma ratio,[7],0.385%
